Patent US8663679B2, “Compositions for improving breast health in women” (Abbott Laboratories, priority 2004, dated 2014)

What was measured:
[1] = tested on: MCF-10A cells, human fibrocystic mammary gland epithelial cells; test: Cell proliferation assay (ViaLight Plus, ATP); assay type: cell-based; conditions: MCF10A, 72 hours
Method: Cells with no treatment are the controls. Plates are incubated at 37° C. for 72 hours.

[2] = tested on: MCF-7 human breast adenocarcinoma cells; test: Cell proliferation assay (ViaLight Plus, ATP); assay type: cell-based; conditions: MCF7, 72 hours
Method: (§1) MCF-7 human breast adenocarcinoma cells (ATCC) are maintained in Eagle's Minimal Essential Medium supplemented with 10% FBS (Gibco-BRL), 1% Penicillin-Streptomycin-Glutamine and 10 nM 17β Estradiol, (Sigma). MCF-10A cells, human fibrocystic mammary gland epithelial cells (ATCC) and HMEC, human mammary gland epithelial cells (Cambrex) are maintained in mammary epithelial complete growth medium (MEGM) containing the Bullet Kit (Cambrex Bio Sciences).
(§2) Cells are seeded on 24-well plates at 20-25×10^3 cells/well in 0.4-0.5 ml of their respective media. […] Cells with no treatment are the controls. Plates are incubated at 37° C. for 72 hours. Cell proliferation is measured using ViaLight Plus Cell Proliferation and Cytotoxicity BioAssay Kit by quantifying the amount of ATP released from the cells according to manufacture's protocol.
Cell culture plates are warmed up to room temperature for 5 minutes and 200 μl of cell lysis reagent is added to each well. After incubation at room temperature for 10 minutes with intermediate swirling of the plate, 100 μl of the sample from each well is loaded in triplicate in a white 96-well microtiter plate, Dynex Microlite 1+, for vialight assay. The ATP monitoring reagent (AMR) is reconstituted in assay buffer and allowed to equilibrate for 15 minutes at room temperature.
(§3) The luminometer and associated WinGlow software program are set up and primed with reconstituted AMR. The plate is placed in the luminometer and 100 μl of reconstituted AMR is dispensed per well. The luminometer is programmed to take one second integrated reading of each appropriate well. The plates are incubated for 2 minutes at room temperature in the luminometer and one second integrated reading of each appropriate well is initiated.
Average RLU (relative luciferase unit) values for each set of triplicate wells, using Winglow software and Microsoft Excel, is calculated and graphed. Effects of various treatments are calculated by plotting the percent of inhibition of cell proliferation versus the concentration of treatment. Percent inhibition of cell proliferation is calculated using the formula: […]

[3] = tested on: HMEC, human mammary gland epithelial cells; conditions: 72 hours
Method: as §1
as §2, with “protocol. […]” for “protocol.”
as §3, with “The plate is placed in the luminometer and 100 μl of reconstituted AMR is dispensed per well.” left out
Average RLU (relative luciferase unit) values for each set of triplicate wells, using Winglow software and Microsoft Excel, is calculated and graphed. […]

MCF10A cells = conditions: GLA 0, 50, 100 μM, 48 hours
Method: (§4) Cells are grown in T75 flasks up to 70-80% confluence before being treated with desired fatty acids conjugated with BSA for 48 hours at 37° C. at various concentrations (0, 50, 100 μM). After incubation, the cells are trypsinized from the flask and the cell suspensions are pooled and collected in 50 ml tubes. Each cell type and each treatment is done in duplicate. Cell suspensions are then centrifuged at 1000 rpm for 10 minutes each. Supernatants are discarded and the pellets suspended in phosphate buffered saline. The cells are washed twice with 10 ml of PBS (Phosphate buffer saline) at each step and centrifuged. The pellets are re-suspended in 10 ml of PBS and counted and the cell numbers are normalized for the experiment. The cell suspension is centrifuged again and the pellets stored at −80° C. until lipid extraction is performed.
(§5) Briefly, each cell pellet from a 50 ml culture is vortexed with 6 ml of methanol, followed by the addition of 12 ml of chloroform and 100 μg of tridecanoin (as internal standard). The mixture is incubated at 4° C. overnight. The chloroform layer is extracted and filtered through a Whatman filter with one gram of anhydrous sodium sulfate to remove particulates and residual water. Organic solvents are evaporated to dryness at 40° C. under a stream of nitrogen. […]

MCF7 cells = conditions: MCF7, GLA 0, 50, 100 μM, 48 hours
Method: as §4, §5

thyroid follicular cells = conditions: well known; cited from earlier work

Compound	anti-proliferative activity on fibrocystic cells [1]	anti-proliferative activity on breast cancer cells [2]	anti-proliferative activity on normal breast cells [3]	production of arachidonic acid (MCF10A cells)	production of arachidonic acid (MCF7 cells)	proliferation of thyroid follicular cells (thyroid follicular cells)
CCCCC/C=C\C/C=C\C/C=C\CCCCC(=O)O [GLA, (Z,Z,Z)-6,9,12-octadecatrienoic acid]	significant anti-proliferative activity	no effect	no effect	increased production of arachidonic acid	increased production of arachidonic acid	
[I-].[K+] [Iodine, potassium iodide]	does not show any anti-proliferative effect	does not show any anti-proliferative effect				inhibits proliferation
O=[Se](=O)([O-])[O-].[Na+].[Na+] [Selenium, sodium selenate]	anti-proliferative activity	anti-proliferative activity	no relative effect			
CCCCC/C=C\C/C=C\C/C=C\CC(I)C1CCCC(=O)O1 (stereo not drawn) [iodo-arachidonate, 6-iodo-5-hydroxy-eicosatrienoic acid-delta-lactone]		significant inhibitory effect				
